Columns and labels:
human NK1 receptor = human NK1 receptor (Homo sapiens, UniProt P25103); assay: NK1 receptor binding, [3H]substance P displacement, CHO cell membranes; conditions: first value of the cell NK1/NK3; read-out: pKi NK1 (converted)
[1] = molecular target: T1, Recombinant human NK3 (hNK3) receptor (Homo sapiens, UniProt P29371); assay: NK3 receptor binding, [3H]SR142801 displacement, membrane preparations; conditions: second value of the cell NK1/NK3; read-out: pKi NK3 (converted)
T1 construct: expressed in transfected cells
T1 sequence (P29371 1-465): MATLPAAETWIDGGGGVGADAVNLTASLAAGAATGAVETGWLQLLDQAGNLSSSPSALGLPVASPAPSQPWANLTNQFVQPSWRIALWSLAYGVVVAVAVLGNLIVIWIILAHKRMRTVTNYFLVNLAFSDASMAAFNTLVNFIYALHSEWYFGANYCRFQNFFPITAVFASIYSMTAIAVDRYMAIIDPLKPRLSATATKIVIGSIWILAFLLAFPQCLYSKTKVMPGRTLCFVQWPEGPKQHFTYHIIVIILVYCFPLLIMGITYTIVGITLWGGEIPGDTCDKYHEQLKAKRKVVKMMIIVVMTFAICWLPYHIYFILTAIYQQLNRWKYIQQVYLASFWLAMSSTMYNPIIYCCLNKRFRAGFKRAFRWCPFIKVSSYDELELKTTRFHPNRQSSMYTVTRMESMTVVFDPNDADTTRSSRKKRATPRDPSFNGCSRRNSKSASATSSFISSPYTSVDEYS
Procedure, shortened: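 hNK3 membranes (~2.5 μg/well) incubated 90 min at room temperature in 50 mM Tris-HCl pH 7.4 with 0.1% BSA, 4 mM MnCl2, 1 μM phosphoramidon. Nonspecific binding defined with 10 μM SB222200; bound [3H]SR142801 separated by filtration on PEI-soaked GF/C filters and counted by scintillation.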

Chain of human NK1 receptor (P25103 whole entry): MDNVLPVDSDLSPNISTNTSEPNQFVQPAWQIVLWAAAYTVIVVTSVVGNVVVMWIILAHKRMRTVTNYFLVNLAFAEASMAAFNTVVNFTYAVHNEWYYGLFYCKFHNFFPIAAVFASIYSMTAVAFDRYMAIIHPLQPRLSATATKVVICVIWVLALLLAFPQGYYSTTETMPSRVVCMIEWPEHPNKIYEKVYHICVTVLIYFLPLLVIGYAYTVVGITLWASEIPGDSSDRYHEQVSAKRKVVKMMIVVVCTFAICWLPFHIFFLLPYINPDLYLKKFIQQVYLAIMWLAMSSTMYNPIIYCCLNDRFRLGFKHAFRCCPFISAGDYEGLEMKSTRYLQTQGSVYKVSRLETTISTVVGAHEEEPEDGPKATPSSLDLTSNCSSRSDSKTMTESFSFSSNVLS

Ki (human NK1 receptor) [nM]	Ki [1] [nM]	SMILES
1.95	2	Cc1ccc(F)cc1-c1cc(N2C[C@@H](O)C[C@H]2CO)ncc1N(C)C(=O)C(C)(C)c1cc(C(F)(F)F)cc(C(F)(F)F)c1 [Example 250, (2S,4S)-2-(3,5-Bis-trifluoromethyl-phenyl)-N-[4-(5-fluoro-2-methyl-phenyl)-6-(4-hydroxy-2-hydroxymethyl-pyrrolidin-1-yl)-pyridin-3-yl]-N-methyl-isobutyramide]
1.32	8.91	CN(C(=O)C(C)(C)c1cc(C(F)(F)F)cc(C(F)(F)F)c1)c1cnc(N2C[C@@H](O)C[C@H]2CO)cc1-c1cccc(F)c1 [Example 251, (2S,4S)-2-(3,5-Bis-trifluoromethyl-phenyl)-N-[4-(3-fluoro-phenyl)-6-(4-hydroxy-2-hydroxymethyl-pyrrolidin-1-yl)-pyridin-3-yl]-N-methyl-isobutyramide]
1.66	6.17	CN(C(=O)C(C)(C)c1cc(C(F)(F)F)cc(C(F)(F)F)c1)c1cnc(N2C[C@@H](O)C[C@H]2CO)cc1-c1ccc(Cl)c(Cl)c1 [Example 252, (2S,4S)-2-(3,5-Bis-trifluoromethyl-phenyl)-N-[4-(3,4-dichloro-phenyl)-6-(4-hydroxy-2-hydroxymethyl-pyrrolidin-1-yl)-pyridin-3-yl]-N-methyl-isobutyramide]
2.88	3.16	CN(C(=O)C(C)(C)c1cc(C(F)(F)F)cc(C(F)(F)F)c1)c1cnc(N2C[C@@H](O)C[C@H]2CO)cc1-c1cccc(Cl)c1Cl [Example 253, (2S,4S)-2-(3,5-Bis-trifluoromethyl-phenyl)-N-[4-(2,3-dichloro-phenyl)-6-(4-hydroxy-2-hydroxymethyl-pyrrolidin-1-yl)-pyridin-3-yl]-N-methyl-isobutyramide]
0.977	3.09	CN(C(=O)C(C)(C)c1cc(C(F)(F)F)cc(C(F)(F)F)c1)c1cnc(N2C[C@@H](O)C[C@H]2CO)cc1-c1cccnc1Cl [Example 254, (2S,4S)-2-(3,5-Bis-trifluoromethyl-phenyl)-N-[2-chloro-6′-(4-hydroxy-2-hydroxymethyl-pyrrolidin-1-yl)-[3,4′]bipyridinyl-3′-yl]-N-methyl-isobutyramide]
0.955	10.7	Cc1ncccc1-c1cc(N2C[C@@H](O)C[C@H]2CO)ncc1N(C)C(=O)C(C)(C)c1cc(C(F)(F)F)cc(C(F)(F)F)c1 [Example 255, (2S,4S)-2-(3,5-Bis-trifluoromethyl-phenyl)-N-[6′-(4-hydroxy-2-hydroxymethyl-pyrrolidin-1-yl)-2-methyl-[3,4′]bipyridinyl-3′-yl]-N-methyl-isobutyramide]
2.4	20	CN(C(=O)C(C)(C)c1cc(C(F)(F)F)cc(C(F)(F)F)c1)c1cnc(N2C[C@@H](O)C[C@H]2CO)cc1-c1ncccc1Cl [Example 256, (2S,4S)-2-(3,5-Bis-trifluoromethyl-phenyl)-N-[3-chloro-6′-(4-hydroxy-2-hydroxymethyl-pyrrolidin-1-yl)-[2,4′]bipyridinyl-3′-yl]-N-methyl-isobutyramide]
2	10	Cc1cc(F)ccc1-c1cc(N2C[C@H](O)C[C@@H]2CO)ncc1N(C)C(=O)C(C)(C)c1cc(C(F)(F)F)cc(C(F)(F)F)c1 [Example 258, (2R,4R)-2-(3,5-Bis-trifluoromethyl-phenyl)-N-[4-(4-fluoro-2-methyl-phenyl)-6-(4-hydroxy-2-hydroxymethyl-pyrrolidin-1-yl)-pyridin-3-yl]-N-methyl-isobutyramide]
1.66	15.1	Cc1cc(F)ccc1-c1cc(N2C[C@@H](O)C[C@@H]2CO)ncc1N(C)C(=O)C(C)(C)c1cc(C(F)(F)F)cc(C(F)(F)F)c1 [Example 259, (2R,4S)-2-(3,5-Bis-trifluoromethyl-phenyl)-N-[4-(4-fluoro-2-methyl-phenyl)-6-(4-hydroxy-2-hydroxymethyl-pyrrolidin-1-yl)-pyridin-3-yl]-N-methyl-isobutyramide]
1.41	17.8	Cc1ccccc1-c1cc(N2C[C@@H](O)C[C@@H]2CO)ncc1N(C)C(=O)C(C)(C)c1cc(C(F)(F)F)cc(C(F)(F)F)c1 [Example 260, (2R,4S)-2-(3,5-Bis-trifluoromethyl-phenyl)-N-[6-(4-hydroxy-2-hydroxymethyl-pyrrolidin-1-yl)-4-o-tolyl-pyridin-3-yl]-N-methyl-isobutyramide]
1.29	0.912	Cc1ccccc1-c1cc(N2CC[C@H](O)[C@H]2CO)ncc1N(C)C(=O)C(C)(C)c1cc(C(F)(F)F)cc(C(F)(F)F)c1 [Example 261, (2R,3S)-2-(3,5-Bis-trifluoromethyl-phenyl)-N-[6-(3-hydroxy-2-hydroxymethyl-pyrrolidin-1-yl)-4-o-tolyl-pyridin-3-yl]-N-methyl-isobutyramide]
7.94	9.77	CN(C(=O)C(C)(C)c1cc(C(F)(F)F)cc(C(F)(F)F)c1)c1cnc(N2CC[C@H](O)[C@H]2CO)cc1-c1ccccc1C(F)(F)F [Example 262, (2R,3S)-2-(3,5-Bis-trifluoromethyl-phenyl)-N-[6-(3-hydroxy-2-hydroxymethyl-pyrrolidin-1-yl)-4-(2-trifluoromethyl-phenyl)-pyridin-3-yl]-N-methyl-isobutyramide]
1.02	1.35	COc1ccccc1-c1cc(N2CC[C@H](O)[C@H]2CO)ncc1N(C)C(=O)C(C)(C)c1cc(C(F)(F)F)cc(C(F)(F)F)c1 [Example 263, (2R,3S)-2-(3,5-Bis-trifluoromethyl-phenyl)-N-[6-(3-hydroxy-2-hydroxymethyl-pyrrolidin-1-yl)-4-(2-methoxy-phenyl)-pyridin-3-yl]-N-methyl-isobutyramide]
1.48	2.14	CN(C(=O)C(C)(C)c1cc(C(F)(F)F)cc(C(F)(F)F)c1)c1cnc(N2CC[C@H](O)[C@H]2CO)cc1-c1ccccc1F [Example 264, (2R,3S)-2-(3,5-Bis-trifluoromethyl-phenyl)-N-[4-(2-fluoro-phenyl)-6-(3-hydroxy-2-hydroxymethyl-pyrrolidin-1-yl)-pyridin-3-yl]-N-methyl-isobutyramide]
1.45	4.9	CN(C(=O)C(C)(C)c1cc(C(F)(F)F)cc(C(F)(F)F)c1)c1cnc(N2CC[C@H](O)[C@H]2CO)cc1-c1ccccc1 [Example 265, (2R,3S)-2-(3,5-Bis-trifluoromethyl-phenyl)-N-[6-(3-hydroxy-2-hydroxymethyl-pyrrolidin-1-yl)-4-phenyl-pyridin-3-yl]-N-methyl-isobutyramide]
1.2	3.8	CN(C(=O)C(C)(C)c1cc(C(F)(F)F)cc(C(F)(F)F)c1)c1cnc(N2CC[C@H](O)[C@H]2CO)cc1-c1ccc(F)cc1 [Example 266, (2R,3S)-2-(3,5-Bis-trifluoromethyl-phenyl)-N-[4-(4-fluoro-phenyl)-6-(3-hydroxy-2-hydroxymethyl-pyrrolidin-1-yl)-pyridin-3-yl]-N-methyl-isobutyramide]
3.63	28.8	Cc1ccc(-c2cc(N3CC[C@H](O)[C@H]3CO)ncc2N(C)C(=O)C(C)(C)c2cc(C(F)(F)F)cc(C(F)(F)F)c2)cc1 [Example 267, (2R,3S)-2-(3,5-Bis-trifluoromethyl-phenyl)-N-[6-(3-hydroxy-2-hydroxymethyl-pyrrolidin-1-yl)-4-p-tolyl-pyridin-3-yl]-N-methyl-isobutyramide]
2.29	2.4	CN(C(=O)C(C)(C)c1cc(C(F)(F)F)cc(C(F)(F)F)c1)c1cnc(N2CC[C@H](O)[C@H]2CO)cc1-c1ccc(Cl)c(Cl)c1 [Example 268, (2R,3S)-2-(3,5-Bis-trifluoromethyl-phenyl)-N-[4-(3,4-dichloro-phenyl)-6-(3-hydroxy-2-hydroxymethyl-pyrrolidin-1-yl)-pyridin-3-yl]-N-methyl-isobutyramide]
1.86	3.55	CN(C(=O)C(C)(C)c1cc(C(F)(F)F)cc(C(F)(F)F)c1)c1cnc(N2CC[C@H](O)[C@H]2CO)cc1-c1cccc(Cl)c1 [Example 269, (2R,3S)-2-(3,5-Bis-trifluoromethyl-phenyl)-N-[4-(3-chloro-phenyl)-6-(3-hydroxy-2-hydroxymethyl-pyrrolidin-1-yl)-pyridin-3-yl]-N-methyl-isobutyramide]
2.63	2.19	CN(C(=O)C(C)(C)c1cc(C(F)(F)F)cc(C(F)(F)F)c1)c1cnc(N2CC[C@H](O)[C@H]2CO)cc1-c1cc(Cl)ccc1Cl [Example 270, (2R,3S)-2-(3,5-Bis-trifluoromethyl-phenyl)-N-[4-(2,5-dichloro-phenyl)-6-(3-hydroxy-2-hydroxymethyl-pyrrolidin-1-yl)-pyridin-3-yl]-N-methyl-isobutyramide]
3.02	1.38	CN(C(=O)C(C)(C)c1cc(C(F)(F)F)cc(C(F)(F)F)c1)c1cnc(N2CC[C@H](O)[C@H]2CO)cc1-c1cccc(Cl)c1Cl [Example 271, (2R,3S)-2-(3,5-Bis-trifluoromethyl-phenyl)-N-[4-(2,3-dichloro-phenyl)-6-(3-hydroxy-2-hydroxymethyl-pyrrolidin-1-yl)-pyridin-3-yl]-N-methyl-isobutyramide]
